Tested on: ONGHEPA1 cells
Experiment: Global gene expression analysis (RNA-Seq) and target gene analysis
Assay type: cell-based, mouse
Settings: TGF-β vs TGF-β+eupatilin, 24 hr
Protocol: For a mechanism for the therapeutic effect on fibrosis, the global gene expression of DMSO-treated ONGHEPA1 cells (a control group), ONGHEPA1 cells in which fibrosis was induced by TGF-β, and ONGHEPA1 cells treated with TGF-β and eupatilin was measured.
The cells were treated with DMSO, TGF-β or eupatilin for 24 hr, and total RNA was isolated to manufacture a library, after which about 10,000 expressed mRNA species in a total transcriptome of 30 Gb were analyzed using an Illumina High-seq sequencer.

`COc1ccc(-c2cc(=O)c3c(O)c(OC)c(O)cc3o2)cc1OC` [eupatilin, 2-(3,4-dimethoxyphenyl)-5,7-dihydroxy-6-methoxy-chromone] was tested. Which “Log2fc Intersectin 1 (SH3 domain protein 1A) (Itsn1)” value did it give?
Its value is “infinite”.

What about the “Log2fc Laminin, alpha 4 (Lama4)” value of the same molecule?
Its value is −1.29.

What about the “Log2fc Latent transforming growth factor beta binding protein 1 (Ltbp1)” value of the same molecule?
The value was 3.32.

What about the “Log2fc Latent transforming growth factor beta binding protein 2 (Ltbp2)” value of the same molecule?
Its value is “−infinite”.

What about the “Log2fc Latent transforming growth factor beta binding protein 4 (Ltbp4)” value of the same molecule?
The value was “−infinite”.

What about the “Log2fc Leprecan 1 (Lepre1)” value of the same molecule?
Its value is 1.75.

And the “Log2fc Lethal giant larvae homolog 1 (Ligi1)” value?
Its value is “infinite”.

What about the “Log2fc Lysyl oxidase-like 2 (Loxl2)” value of the same molecule?
The value was 1.93.

What about the “Log2fc Microtubule-associated protein 4 (Map4)” value of the same molecule?
The value was “−infinite”.

What about the “Log2fc Multiple coagulation factor deficiency 2 (Mcfd2)” value of the same molecule?
The value was −1.28.

And the “Log2fc Natriuretic peptide receptor 3 (Npr3)” value?
The value was 2.82.

And the “Log2fc Nischarin (Nisch)” value?
Its value is “infinite”.

And the “Log2fc Olfactomedin 2 (Olfm2)” value?
Its value is 1.9.

What about the “Log2fc Oxysterol binding protein-like 9 (Osbpl9)” value of the same molecule?
The value was “−infinite”.

And the “Log2fc Palladin, cytoskeletal associated protein (Palld)” value?
Its value is “infinite”.

What about the “Log2fc Periostin (Postn)” value of the same molecule?
The value was −4.92.

And the “Log2fc Perlecan (Heparan sulfate proteoglycan2) (Hspg2)” value?
Its value is “infinite”.

And the “Log2fc Pleckstrin and sec7 domain containing 3 (Psd3)” value?
Its value is 1.43.

What about the “Log2fc Pleiotrophin (Ptn)” value of the same molecule?
The value was 2.06.

And the “Log2fc Procollagen lysine, 2-oxoglutarate 5-dioxygenase 2 (Plod2)” value?
The value was −1.48.

What about the “Log2fc Procollagen-lysine, 2-oxoglutarate 5-dioxygenase 3 (Plod3)” value of the same molecule?
Its value is −2.01.

What about the “Log2fc Procollagen-proline, 2-oxoglutarate 4-dioxygenase (proline 4-hydroxylase), alpha 1 polypeptide (P4ha1)” value of the same molecule?
The value was −1.81.

What about the “Log2fc Prosaposin (Psap)” value of the same molecule?
Its value is “infinite”.

What about the “Log2fc Prostate androgen-regulated mucin-like protein 1 (Parm1)” value of the same molecule?
Its value is 1.57.

And the “Log2fc Protein FAM 53B (Fam53b)” value?
Its value is “infinite”.

What about the “Log2fc Protein disulfide isomerase associated 6 (Pdia6)” value of the same molecule?
Its value is 1.85.

What about the “Log2fc Ring finger protein 145 (Rnf145)” value of the same molecule?
The value was “−infinite”.

What about the “Log2fc Septin2 (Sept2)” value of the same molecule?
Its value is “infinite”.

And the “Log2fc Serin (or cysteine) peptidase inhibitor, clade F, member 1 (Serpinf1)” value?
The value was 1.99.

And the “Log2fc Serine (or cysteine) peptidase inhibitor, clade E, member 1 (Serpine 1)” value?
Its value is −1.78.

And the “Log2fc Slit homolog 3 (Slit3)” value?
Its value is 3.65.

What about the “Log2fc Spectrin alpha, erythrocytic 1 (Spta1)” value of the same molecule?
Its value is 4.01.

And the “Log2fc Spectrin beta, non-erythrocytic 1 (Sptbn1)” value?
The value was “infinite”.

What about the “Log2fc Spectrin repeat containing nuclear envelope 2 (Syne2)” value of the same molecule?
The value was “−infinite”.

And the “Log2fc Surfeit 1 (SURF1)” value?
Its value is “−infinite”.

What about the “Log2fc Synaptopodin (Synpo)” value of the same molecule?
Its value is “−infinite”.

And the “Log2fc TEA Domain Transcription factor 1 (TEAD1)” value?
The value was “−infinite”.

And the “Log2fc TLC domain-containing protein 2 (Tlcd2)” value?
The value was “infinite”.

And the “Log2fc Tankyrase, TRF1-interacting ankyrin-related ADP-ribose polymerase 2 (Tnks2)” value?
The value was “−infinite”.

What about the “Log2fc Tenascin C (Tnc)” value of the same molecule?
Its value is 5.1.

And the “Log2fc Thrombospondin, type I domain containing 7A (Thsd7a)” value?
Its value is 5.06.

What about the “Log2fc Thymoma viral proto-oncogene 1 (Akt1)” value of the same molecule?
The value was “−infinite”.

And the “Log2fc Tissue inhibitor of metalloproteinase 3 (Timp3)” value?
The value was “infinite”.

And the “Log2fc TraB domain containing 2B (Trabd2b)” value?
The value was 2.75.

And the “Log2fc Transformation/transcription domain-associated protein (Trrap)” value?
The value was “−infinite”.

And the “Log2fc Transforming, acidic coiled-coil containing protein 2 (Tacc2)” value?
Its value is “infinite”.

What about the “Log2fc Tropomyosin 1, alpha (Tpm1)” value of the same molecule?
The value was “infinite”.

What about the “Log2fc Tubulin-specific chaperone d (Tbcd)” value of the same molecule?
Its value is 2.11.

What about the “Log2fc Ubiquitin-like modifier activating enzyme 1 (Uba1)” value of the same molecule?
Its value is “infinite”.

And the “Log2fc Vinculin (Vcl)” value?
The value was “infinite”.

What about the “Log2fc WNK lysine deficient protein kinase 1 (Wnk1)” value of the same molecule?
Its value is “−infinite”.

What about the “Log2fc Willians-Beuren syndrome chromosome region 17 homolog (Wbscr17)” value of the same molecule?
The value was −2.83.

And the “Log2fc c-fos induced growth factor (Figf)” value?
Its value is 2.49.

And the “Log2fc rho/rac guanine nucleotide exchange factor (GEF) 2 (Arhgef2)” value?
The value was “−infinite”.

And the “Log2fc v-myc myelocytomatosis viral related oncogene, neuroblastoma derived (Mycn)” value?
The value was 2.05.

— patent US10744114B2, “Use of eupatilin as pharmaceutical composition for prevention and treatment of fibrosis using EMT inhibitory activity” (OSTEONEUROGEN INC., priority 2016, dated 2020)
